ChEMBL document CHEMBL3885861, “Open TG-GATES”

Species: Rattus norvegicus
Assay: Open TG-GATES - Regimen: Single
Format: toxicity, organism-based, Sprague-Dawley
Parameters: regimen Single, gender Male, age 6 weeks
Details: in vivo, po, 30 mg/kg, route gavage, dose level High; for APTT / Bas / Eos / Fbg / Hb / Ht / Lym / MCH / MCHC / MCV / Mono / Neu / PT / Plat / RBC / Ret / WBC: tissue Blood; for KIDNEY_L / KIDNEY_R / KIDNEY_TOTAL: tissue Kidney; for LIVER: tissue Liver; for A/G / ALP / ALT / AST / BUN / CRE / Ca / Cl / DBIL / GLC / IP / K / LDH / Na / PL / RALB / TBIL / TC / TG / TP / gamma-GTP: tissue Plasma

Nc1c2c(nc3ccccc13)CCCC2 [TACRINE]
TERMINAL_BW (3 h): 205 g | APTT (3 h): 21.4 s | Bas (3 h): 0% | Eos (3 h): 0.6% | Fbg (3 h): 313.8 mg/dL | Hb (3 h): 13.4 g/dL | Ht (3 h): 39.4% | Lym (3 h): 71% | MCH (3 h): 21.4 pg | MCHC (3 h): 34.1% | MCV (3 h): 62.7 fL | Mono (3 h): 2.6% | Neu (3 h): 25% | PT (3 h): 16.4 s | Plat (3 h): 124.7 x10_4/uL | RBC (3 h): 628.2 x10_4/ul | Ret (3 h): 8.7% | WBC (3 h): 55.6 x10_2/uL | KIDNEY_L (3 h): 0.9 g | KIDNEY_R (3 h): 0.9 g | KIDNEY_TOTAL (3 h): 1.9 g | LIVER (3 h): 9 g | A/G (3 h): 1.3 | ALP (3 h): 1523.2 IU/L | ALT (3 h): 49.8 IU/L | AST (3 h): 152.2 IU/L | BUN (3 h): 12.6 mg/dL | CRE (3 h): 0.2 mg/dL | Ca (3 h): 10.4 mg/dL | Cl (3 h): 103.8 meq/L | DBIL (3 h): 0 mg/dL | GLC (3 h): 269.6 mg/dL | IP (3 h): 9.9 mg/dL | K (3 h): 3.6 meq/L | LDH (3 h): 369.4 IU/L | Na (3 h): 139.2 meq/L | PL (3 h): 142.6 mg/dL | RALB (3 h): 3.2 g/dL | TBIL (3 h): 0.022 mg/dL | TC (3 h): 78 mg/dL | TG (3 h): 69.8 mg/dL | TP (3 h): 5.7 g/dL | gamma-GTP (3 h): 1.2 IU/L | TERMINAL_BW (6 h): 199.4 g | APTT (6 h): 20.8 s | Bas (6 h): 0% | Eos (6 h): 0.4% | Fbg (6 h): 327.2 mg/dL | Hb (6 h): 14 g/dL | Ht (6 h): 40.4% | Lym (6 h): 67% | MCH (6 h): 21.1 pg | MCHC (6 h): 34.6% | MCV (6 h): 61 fL | Mono (6 h): 3% | Neu (6 h): 29% | PT (6 h): 15.7 s | Plat (6 h): 124.5 x10_4/uL | RBC (6 h): 662.6 x10_4/ul | Ret (6 h): 7.7% | WBC (6 h): 64.5 x10_2/uL | KIDNEY_L (6 h): 0.9 g | KIDNEY_R (6 h): 0.9 g | KIDNEY_TOTAL (6 h): 1.8 g | LIVER (6 h): 8.9 g | A/G (6 h): 1.2 | ALP (6 h): 1476.6 IU/L | ALT (6 h): 51.8 IU/L | AST (6 h): 199.8 IU/L | BUN (6 h): 13.4 mg/dL | CRE (6 h): 0.2 mg/dL | Ca (6 h): 10.6 mg/dL | Cl (6 h): 106.4 meq/L | DBIL (6 h): 0 mg/dL | GLC (6 h): 221.4 mg/dL | IP (6 h): 9.3 mg/dL | K (6 h): 3.9 meq/L | LDH (6 h): 347.2 IU/L | Na (6 h): 142 meq/L | PL (6 h): 146.4 mg/dL | RALB (6 h): 3.3 g/dL | TBIL (6 h): 0.02 mg/dL | TC (6 h): 81.6 mg/dL | TG (6 h): 45.4 mg/dL | TP (6 h): 6 g/dL | gamma-GTP (6 h): 1 IU/L
